Reference: publication PMC9481151, “Discovery of new symmetrical and asymmetrical nitrile-containing 1,4-dihydropyridine derivatives as dual kinases and P-glycoprotein inhibitors: synthesis, in vitro assays, and in silico studies” (Journal of Enzyme Inhibition and Medicinal Chemistry, 2022)

What was measured:
A498 = assay: NCI single dose (10 µM) SRB screen; assay type: cell-based, human; details: renal cancer, 48 h
PC-3 = assay: NCI single dose (10 µM) SRB screen; assay type: cell-based, human; details: prostate cancer, 48 h
COLO 205 = assay: NCI single dose (10 µM) SRB screen; assay type: cell-based, human; details: colon cancer, 48 h
ACHN = assay: NCI single dose (10 µM) SRB screen; assay type: cell-based, human; details: renal cancer, 48 h
IGROV1 = assay: NCI single dose (10 µM) SRB screen; assay type: cell-based, human; details: ovarian cancer, 48 h
HCT-116 = assay: NCI single dose (10 µM) SRB screen; assay type: cell-based, human; details: colon cancer, 48 h
SK-MEL-2 = assay: NCI single dose (10 µM) SRB screen; assay type: cell-based, human; details: melanoma, 48 h
HOP-92 = assay: NCI single dose (10 µM) SRB screen; assay type: cell-based, human; details: non-small cell lung cancer, 48 h
NCI/ADR-RES = assay: NCI single dose (10 µM) SRB screen; assay type: cell-based, human; details: ovarian cancer, 48 h
CAKI-1 = assay: NCI single dose (10 µM) SRB screen; assay type: cell-based, human; details: renal cancer, 48 h
OVCAR-4 = assay: NCI single dose (10 µM) SRB screen; assay type: cell-based, human; details: ovarian cancer, 48 h
UACC-257 = assay: NCI single dose (10 µM) SRB screen; assay type: cell-based, human; details: melanoma, 48 h
MDA-MB-468 = assay: NCI single dose (10 µM) SRB screen; assay type: cell-based, human; details: breast cancer, 48 h
OVCAR-8 = assay: NCI single dose (10 µM) SRB screen; assay type: cell-based, human; details: ovarian cancer, 48 h
SN12C = assay: NCI single dose (10 µM) SRB screen; assay type: cell-based, human; details: renal cancer, 48 h
NCI-H522 = assay: NCI single dose (10 µM) SRB screen; assay type: cell-based, human; details: non-small cell lung cancer, 48 h
SF-539 = assay: NCI single dose (10 µM) SRB screen; assay type: cell-based, human; details: CNS cancer, 48 h
NCI-H460 = assay: NCI single dose (10 µM) SRB screen; assay type: cell-based, human; details: non-small cell lung cancer, 48 h
U251 = assay: NCI single dose (10 µM) SRB screen; assay type: cell-based, human; details: CNS cancer, 48 h
HCT-15 = assay: NCI single dose (10 µM) SRB screen; assay type: cell-based, human; details: colon cancer, 48 h
HT29 = assay: NCI single dose (10 µM) SRB screen; assay type: cell-based, human; details: colon cancer, 48 h
Escherichia coli = assay: Agar well diffusion method; details: relative to ciprofloxacin
MALME-3M = assay: NCI single dose (10 µM) SRB screen; assay type: cell-based, human; details: melanoma, 48 h
HS578T = assay: NCI single dose (10 µM) SRB screen; assay type: cell-based, human; details: breast cancer, 48 h
TK-10 = assay: NCI single dose (10 µM) SRB screen; assay type: cell-based, human; details: renal cancer, 48 h
UO-31 = assay: NCI single dose (10 µM) SRB screen; assay type: cell-based, human; details: renal cancer, 48 h
786-0 = assay: NCI single dose (10 µM) SRB screen; assay type: cell-based, human; details: renal cancer, 48 h
SR = assay: NCI single dose (10 µM) SRB screen; assay type: cell-based, human; details: leukaemia, 48 h
MCF7 = assay: NCI single dose (10 µM) SRB screen; assay type: cell-based, human; details: breast cancer, 48 h
EKVX = assay: NCI single dose (10 µM) SRB screen; assay type: cell-based, human; details: non-small cell lung cancer, 48 h
SK-MEL-5 = assay: NCI single dose (10 µM) SRB screen; assay type: cell-based, human; details: melanoma, 48 h
NCI-H23 = assay: NCI single dose (10 µM) SRB screen; assay type: cell-based, human; details: non-small cell lung cancer, 48 h
Aspergillus flavus = assay: Agar well diffusion method
NCI-H226 = assay: NCI single dose (10 µM) SRB screen; assay type: cell-based, human; details: non-small cell lung cancer, 48 h
DU-145 = assay: NCI single dose (10 µM) SRB screen; assay type: cell-based, human; details: prostate cancer, 48 h
RXF 393 = assay: NCI single dose (10 µM) SRB screen; assay type: cell-based, human; details: renal cancer, 48 h
OVCAR-3 = assay: NCI single dose (10 µM) SRB screen; assay type: cell-based, human; details: ovarian cancer, 48 h
UACC-62 = assay: NCI single dose (10 µM) SRB screen; assay type: cell-based, human; details: melanoma, 48 h
Candida albicans = assay: Agar well diffusion method
K-562 = assay: NCI single dose (10 µM) SRB screen; assay type: cell-based, human; details: leukaemia, 48 h
SW-620 = assay: NCI single dose (10 µM) SRB screen; assay type: cell-based, human; details: colon cancer, 48 h
SF-268 = assay: NCI single dose (10 µM) SRB screen; assay type: cell-based, human; details: CNS cancer, 48 h
T-47D = assay: NCI single dose (10 µM) SRB screen; assay type: cell-based, human; details: breast cancer, 48 h
MOLT-4 = assay: NCI single dose (10 µM) SRB screen; assay type: cell-based, human; details: leukaemia, 48 h
KM12 = assay: NCI single dose (10 µM) SRB screen; assay type: cell-based, human; details: colon cancer, 48 h
M14 = assay: NCI single dose (10 µM) SRB screen; assay type: cell-based, human; details: melanoma, 48 h
SNB-19 = assay: NCI single dose (10 µM) SRB screen; assay type: cell-based, human; details: CNS cancer, 48 h
NCI-H322M = assay: NCI single dose (10 µM) SRB screen; assay type: cell-based; details: non-small cell lung cancer, 48 h
OVCAR-5 = assay: NCI single dose (10 µM) SRB screen; assay type: cell-based, human; details: ovarian cancer, 48 h
NCI 60 cancer cell lines = assay: NCI single dose (10 µM) SRB screen, mean over panel; assay type: cell-based, human; details: mean over 60 cell lines, 48 h
LOX IMVI = assay: NCI single dose (10 µM) SRB screen; assay type: cell-based, human; details: melanoma, 48 h
MDA-MB-231 = assay: NCI single dose (10 µM) SRB screen; assay type: cell-based, human; details: breast cancer, 48 h
HCC-2998 = assay: NCI single dose (10 µM) SRB screen; assay type: cell-based, human; details: colon cancer, 48 h

In the case of `CCOC(=O)C1=C(C)NC(C)=C(C(=O)OC(C)C)C1c1cccc(C#N)c1` (racemic) [Compound 2h, (±)-3-Ethyl 5-isopropyl 4-(3-cyanophenyl)-2,6-dimethyl-1,4-dihydropyridine-3,5-dicarboxylate], the “GI% A498” value (A498) is reported as 16%, the “GI% PC-3” value (PC-3) is reported as 12% and the “GI% COLO 205” value (COLO 205) is reported as “– (Only GI% ≥ 10 are shown)”. For the same compound, the “GI% ACHN” value (ACHN) was “– (Only GI% ≥ 10 are shown)”, the “GI% IGROV1” value (IGROV1) was “– (Only GI% ≥ 10 are shown)” and the “GI% HCT-116” value (HCT-116) was “– (Only GI% ≥ 10 are shown)”. For the same compound, the “GI% SK-MEL-2” value (SK-MEL-2) was “– (Only GI% ≥ 10 are shown)”, the “GI% HOP-92” value (HOP-92) was “– (Only GI% ≥ 10 are shown)” and the “GI% NCI/ADR-RES” value (NCI/ADR-RES) was “– (Only GI% ≥ 10 are shown)”. For the same compound, the “GI% CAKI-1” value (CAKI-1) was 15%, the “GI% OVCAR-4” value (OVCAR-4) was “– (Only GI% ≥ 10 are shown)” and the “GI% UACC-257” value (UACC-257) was “– (Only GI% ≥ 10 are shown)”. The “GI% MDA-MB-468” value (MDA-MB-468) was 20%, the “GI% OVCAR-8” value (OVCAR-8) was “– (Only GI% ≥ 10 are shown)” and the “GI% SN12C” value (SN12C) was “– (Only GI% ≥ 10 are shown)”. The “GI% NCI-H522” value (NCI-H522) was “– (Only GI% ≥ 10 are shown)”, the “GI% SF-539” value (SF-539) was “– (Only GI% ≥ 10 are shown)” and the “GI% NCI-H460” value (NCI-H460) was “– (Only GI% ≥ 10 are shown)”. For the same compound, the “GI% U251” value (U251) was “– (Only GI% ≥ 10 are shown)”, the “GI% HCT-15” value (HCT-15) was “– (Only GI% ≥ 10 are shown)” and the “GI% HT29” value (HT29) was “– (Only GI% ≥ 10 are shown)”. For the same compound, the “% activity index, E. coli” value (Escherichia coli) was “– (Values below 25 are of limited value and not shown as they refer either to inactive or non-diffusing compounds)”, the “GI% MALME-3M” value (MALME-3M) was “– (Only GI% ≥ 10 are shown)” and the “GI% HS578T” value (HS578T) was “– (Only GI% ≥ 10 are shown)”. For the same compound, the “GI% TK-10” value (TK-10) was “– (Only GI% ≥ 10 are shown)”, the “GI% UO-31” value (UO-31) was “– (Only GI% ≥ 10 are shown)” and the “GI% 786-0” value (786-0) was “– (Only GI% ≥ 10 are shown)”. For the same compound, the “GI% SR” value (SR) was “– (Only GI% ≥ 10 are shown)”, the “GI% MCF7” value (MCF7) was “– (Only GI% ≥ 10 are shown)” and the “GI% EKVX” value (EKVX) was “– (Only GI% ≥ 10 are shown)”. For the same compound, the “GI% SK-MEL-5” value (SK-MEL-5) was “– (Only GI% ≥ 10 are shown)”, the “GI% NCI-H23” value (NCI-H23) was “– (Only GI% ≥ 10 are shown)” and the zone of inhibition at 1000 µg/mL (Aspergillus flavus; Aspergillus flavus, 24 h, read-out: Diameter of inhibition zone, A. flavus) was 12 mm. For the same compound, the “% activity index, A. flavus” value (Aspergillus flavus; relative to clotrimazole) was 48%, the “GI% NCI-H226” value (NCI-H226) was “– (Only GI% ≥ 10 are shown)” and the “GI% DU-145” value (DU-145) was “– (Only GI% ≥ 10 are shown)”. For the same compound, the “GI% RXF 393” value (RXF 393) was “– (Only GI% ≥ 10 are shown)”, the “GI% OVCAR-3” value (OVCAR-3) was “– (Only GI% ≥ 10 are shown)” and the “GI% UACC-62” value (UACC-62) was “– (Only GI% ≥ 10 are shown)”. For the same compound, the zone of inhibition at 1000 µg/mL (Candida albicans; Candida albicans, 24 h, read-out: Diameter of inhibition zone, C. albicans) was 8 mm, the “% activity index, C. albicans” value (Candida albicans; relative to clotrimazole) was 29.6% and the “GI% K-562” value (K-562) was “– (Only GI% ≥ 10 are shown)”. The “GI% SW-620” value (SW-620) was “– (Only GI% ≥ 10 are shown)”, the “GI% SF-268” value (SF-268) was “– (Only GI% ≥ 10 are shown)” and the “GI% T-47D” value (T-47D) was “– (Only GI% ≥ 10 are shown)”. For the same compound, the “GI% MOLT-4” value (MOLT-4) was 11%, the “GI% KM12” value (KM12) was “– (Only GI% ≥ 10 are shown)” and the “GI% M14” value (M14) was “– (Only GI% ≥ 10 are shown)”. The “GI% SNB-19” value (SNB-19) was “– (Only GI% ≥ 10 are shown)”, the “GI% NCI-H322M” value (NCI-H322M) was “– (Only GI% ≥ 10 are shown)” and the “GI% OVCAR-5” value (OVCAR-5) was “– (Only GI% ≥ 10 are shown)”. The “Mean GI%” value (NCI 60 cancer cell lines) was 0%, the “GI% LOX IMVI” value (LOX IMVI) was “– (Only GI% ≥ 10 are shown)” and the “GI% MDA-MB-231” value (MDA-MB-231) was “– (Only GI% ≥ 10 are shown)”. For the same compound, the “GI% HCC-2998” value (HCC-2998) was “– (Only GI% ≥ 10 are shown)”.
